This is an account of results in ChEMBL document CHEMBL2434948, “Discovery, synthesis, and characterization of an orally bioavailable, brain penetrant inhibitor of mixed lineage kinase 3” (J Med Chem, 2013).

Molecules are shown by their SMILES. Active and inactive are the calls of the source. The calls are words filed in the database; no cut-off is given here.

In test [1] the target is Mitogen-activated protein kinase kinase kinase kinase 4 (Homo sapiens) (UniProt O95819). The test is described as follows: Binding affinity to human wild type MAP4K4 at 1 uM by qPCR analysis. A general note: Quantitative PCR measures a nucleic acid by following its amplification.
Mitogen-activated protein kinase kinase kinase kinase 4 (Homo sapiens), sequence (O95819 2-1239 limits assumed): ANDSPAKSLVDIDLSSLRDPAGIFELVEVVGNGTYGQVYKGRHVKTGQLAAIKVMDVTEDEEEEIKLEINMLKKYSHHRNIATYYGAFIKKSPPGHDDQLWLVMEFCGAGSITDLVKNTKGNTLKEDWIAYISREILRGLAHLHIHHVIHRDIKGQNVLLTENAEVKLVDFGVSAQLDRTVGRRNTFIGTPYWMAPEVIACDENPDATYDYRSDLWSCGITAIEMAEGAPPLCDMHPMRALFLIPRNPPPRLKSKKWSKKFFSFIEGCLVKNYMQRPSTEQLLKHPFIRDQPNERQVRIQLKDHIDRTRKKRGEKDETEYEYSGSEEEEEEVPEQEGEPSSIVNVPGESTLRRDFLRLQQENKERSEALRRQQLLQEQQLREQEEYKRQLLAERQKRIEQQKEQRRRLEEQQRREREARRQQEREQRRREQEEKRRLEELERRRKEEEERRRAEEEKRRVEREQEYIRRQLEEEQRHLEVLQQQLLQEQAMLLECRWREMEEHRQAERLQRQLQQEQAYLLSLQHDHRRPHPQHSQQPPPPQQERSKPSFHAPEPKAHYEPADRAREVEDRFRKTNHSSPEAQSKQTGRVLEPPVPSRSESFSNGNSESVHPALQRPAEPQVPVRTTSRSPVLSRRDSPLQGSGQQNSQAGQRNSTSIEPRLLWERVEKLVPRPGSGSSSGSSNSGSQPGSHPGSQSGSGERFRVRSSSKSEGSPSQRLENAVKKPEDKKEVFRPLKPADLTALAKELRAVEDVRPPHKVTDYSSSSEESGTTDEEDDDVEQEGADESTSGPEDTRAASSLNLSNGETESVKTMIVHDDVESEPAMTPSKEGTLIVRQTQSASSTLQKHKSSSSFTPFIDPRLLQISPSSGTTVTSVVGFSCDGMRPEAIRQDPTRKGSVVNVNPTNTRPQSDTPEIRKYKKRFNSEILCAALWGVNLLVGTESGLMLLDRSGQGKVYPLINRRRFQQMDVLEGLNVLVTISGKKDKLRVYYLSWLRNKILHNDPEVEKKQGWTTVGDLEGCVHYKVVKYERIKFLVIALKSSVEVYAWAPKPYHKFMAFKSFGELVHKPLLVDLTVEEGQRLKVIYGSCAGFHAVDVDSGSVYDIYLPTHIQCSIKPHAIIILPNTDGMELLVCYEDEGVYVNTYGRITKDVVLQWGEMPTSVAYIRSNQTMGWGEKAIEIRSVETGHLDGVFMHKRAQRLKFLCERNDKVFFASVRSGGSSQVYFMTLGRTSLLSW
Test [2] deals with Ribosomal protein S6 kinase alpha-1 (Homo sapiens) (UniProt Q15418). The test is described as follows: Inhibition of human wild type RSK1 at 1 uM by qPCR analysis.
Ribosomal protein S6 kinase alpha-1 (Homo sapiens), sequence (Q15418 whole entry): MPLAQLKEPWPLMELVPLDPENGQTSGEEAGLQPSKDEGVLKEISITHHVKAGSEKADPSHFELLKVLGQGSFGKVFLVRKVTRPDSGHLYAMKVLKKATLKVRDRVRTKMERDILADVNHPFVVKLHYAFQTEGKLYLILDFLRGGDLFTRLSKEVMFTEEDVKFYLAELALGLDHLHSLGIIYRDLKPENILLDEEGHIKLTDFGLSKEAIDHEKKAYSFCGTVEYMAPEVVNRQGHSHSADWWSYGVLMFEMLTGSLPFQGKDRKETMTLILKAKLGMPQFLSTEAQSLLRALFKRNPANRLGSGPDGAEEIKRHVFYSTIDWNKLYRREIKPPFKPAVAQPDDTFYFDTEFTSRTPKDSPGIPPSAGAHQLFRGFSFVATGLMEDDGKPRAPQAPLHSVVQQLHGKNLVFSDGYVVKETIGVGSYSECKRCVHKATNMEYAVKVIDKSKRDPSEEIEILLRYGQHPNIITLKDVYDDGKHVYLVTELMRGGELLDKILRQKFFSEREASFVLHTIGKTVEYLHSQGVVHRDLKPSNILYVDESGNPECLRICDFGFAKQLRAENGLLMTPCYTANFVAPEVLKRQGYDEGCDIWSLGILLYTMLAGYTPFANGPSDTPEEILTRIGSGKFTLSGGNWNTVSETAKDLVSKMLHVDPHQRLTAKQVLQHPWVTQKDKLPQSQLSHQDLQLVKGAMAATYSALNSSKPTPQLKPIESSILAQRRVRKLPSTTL
Test [3] has as its target Serine/threonine-protein kinase B-raf (Homo sapiens) (UniProt P15056). The test is described as follows: Inhibition of human wild type BRAF at 1 uM by qPCR analysis.
For test [4], the target named is Mitogen-activated protein kinase 13 (Homo sapiens) (UniProt O15264). The test is described as follows: Inhibition of human wild type p38d at 1 uM by qPCR analysis.
Test [5] addresses Inhibitor of nuclear factor kappa-B kinase subunit alpha (Homo sapiens) (UniProt O15111). The test is described as follows: Inhibition of human wild type IKKalpha at 1 uM by qPCR analysis relative to control.
For test [6], the target named is NUAK family SNF1-like kinase 1 (Homo sapiens) (UniProt O60285). Briefly: Inhibition of human wild type ARK5 at 1 uM by qPCR analysis relative to control.
NUAK family SNF1-like kinase 1 (Homo sapiens), sequence (O60285 whole entry): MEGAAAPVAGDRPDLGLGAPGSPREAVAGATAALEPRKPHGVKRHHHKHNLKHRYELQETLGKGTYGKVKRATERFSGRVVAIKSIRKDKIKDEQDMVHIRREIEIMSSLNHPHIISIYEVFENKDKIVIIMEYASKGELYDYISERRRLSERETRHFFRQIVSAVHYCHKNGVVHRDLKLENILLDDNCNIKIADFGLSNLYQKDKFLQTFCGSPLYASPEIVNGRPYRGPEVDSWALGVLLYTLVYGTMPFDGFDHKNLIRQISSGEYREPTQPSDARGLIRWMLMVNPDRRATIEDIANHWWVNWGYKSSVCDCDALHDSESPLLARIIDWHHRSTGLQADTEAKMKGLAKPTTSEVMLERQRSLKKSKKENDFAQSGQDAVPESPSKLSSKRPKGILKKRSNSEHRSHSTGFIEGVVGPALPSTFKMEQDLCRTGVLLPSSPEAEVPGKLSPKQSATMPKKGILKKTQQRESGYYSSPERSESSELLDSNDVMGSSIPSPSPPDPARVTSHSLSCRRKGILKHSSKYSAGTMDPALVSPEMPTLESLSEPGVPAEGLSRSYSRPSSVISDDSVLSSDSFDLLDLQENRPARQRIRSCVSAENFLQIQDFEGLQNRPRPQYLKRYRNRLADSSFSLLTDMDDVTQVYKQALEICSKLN
Test [7] addresses Cyclin-dependent kinase 11B (Homo sapiens) (UniProt P21127). Briefly: Inhibition of human wild type CDK11 at 1 uM by qPCR analysis relative to control.
Test [8] has as its target Rho-associated protein kinase 2 (Homo sapiens, UniProt O75116).
Description: Inhibition of wild type human ROCK2 by high throughput ATP-[33P] radiolabeled assay
In test [9] the target is Insulin-like growth factor 1 receptor (Homo sapiens, UniProt P08069).
Insulin-like growth factor 1 receptor, sequence (P08069 31-736 limits assumed): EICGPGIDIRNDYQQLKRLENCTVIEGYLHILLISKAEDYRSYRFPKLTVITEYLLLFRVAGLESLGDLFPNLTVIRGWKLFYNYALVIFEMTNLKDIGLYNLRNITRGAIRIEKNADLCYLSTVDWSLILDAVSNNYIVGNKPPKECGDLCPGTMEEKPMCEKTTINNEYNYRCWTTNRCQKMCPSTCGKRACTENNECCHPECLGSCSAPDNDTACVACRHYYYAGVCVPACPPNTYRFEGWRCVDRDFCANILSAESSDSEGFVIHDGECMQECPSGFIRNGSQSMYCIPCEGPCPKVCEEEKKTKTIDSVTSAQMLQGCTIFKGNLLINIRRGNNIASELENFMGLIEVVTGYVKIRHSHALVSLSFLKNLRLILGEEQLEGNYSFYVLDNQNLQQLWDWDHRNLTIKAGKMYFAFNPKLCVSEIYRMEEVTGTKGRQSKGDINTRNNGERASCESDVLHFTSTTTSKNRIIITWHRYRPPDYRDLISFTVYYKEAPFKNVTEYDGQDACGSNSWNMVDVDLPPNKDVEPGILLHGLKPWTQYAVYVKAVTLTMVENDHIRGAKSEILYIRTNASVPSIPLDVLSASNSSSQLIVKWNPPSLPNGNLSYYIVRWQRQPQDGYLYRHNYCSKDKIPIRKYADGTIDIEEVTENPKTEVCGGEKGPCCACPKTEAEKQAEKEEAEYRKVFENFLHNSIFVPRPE
Insulin-like growth factor 1 receptor, sequence (P08069 741-1367 limits assumed): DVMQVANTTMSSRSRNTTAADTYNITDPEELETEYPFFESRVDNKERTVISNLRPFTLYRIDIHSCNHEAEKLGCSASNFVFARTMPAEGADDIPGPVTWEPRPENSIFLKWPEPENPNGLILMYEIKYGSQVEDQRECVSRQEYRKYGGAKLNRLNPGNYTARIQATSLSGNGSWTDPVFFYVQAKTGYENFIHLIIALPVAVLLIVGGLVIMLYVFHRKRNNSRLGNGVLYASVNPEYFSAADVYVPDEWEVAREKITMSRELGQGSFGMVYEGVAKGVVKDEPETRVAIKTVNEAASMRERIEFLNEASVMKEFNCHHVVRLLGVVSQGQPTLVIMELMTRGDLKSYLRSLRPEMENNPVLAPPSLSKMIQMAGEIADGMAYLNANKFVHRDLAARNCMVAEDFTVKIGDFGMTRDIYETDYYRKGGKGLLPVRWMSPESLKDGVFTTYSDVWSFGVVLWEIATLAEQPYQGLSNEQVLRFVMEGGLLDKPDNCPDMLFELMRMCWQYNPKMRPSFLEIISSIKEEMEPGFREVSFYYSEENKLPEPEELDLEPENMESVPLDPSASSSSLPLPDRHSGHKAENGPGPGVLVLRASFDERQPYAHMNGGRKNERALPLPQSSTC
Description: Inhibition of wild type human IGF1R by high throughput ATP-[33P] radiolabeled assay
Test [10] deals with Aurora kinase C (Homo sapiens, UniProt Q9UQB9).
Aurora kinase C, sequence (Q9UQB9 whole entry): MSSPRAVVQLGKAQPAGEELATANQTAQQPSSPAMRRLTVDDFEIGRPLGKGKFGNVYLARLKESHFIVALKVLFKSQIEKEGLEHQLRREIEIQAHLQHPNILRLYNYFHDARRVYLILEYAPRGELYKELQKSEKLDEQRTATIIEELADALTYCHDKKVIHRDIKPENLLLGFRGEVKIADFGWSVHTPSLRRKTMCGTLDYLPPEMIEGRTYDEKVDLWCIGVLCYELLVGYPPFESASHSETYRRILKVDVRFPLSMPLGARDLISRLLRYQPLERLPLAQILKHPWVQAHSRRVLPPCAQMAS
Description: Inhibition of wild type human Aurora kinase C kinase by high throughput ATP-[33P] radiolabeled assay
Test [11] deals with Aurora kinase A (Homo sapiens, UniProt O14965).
Description: Inhibition of wild type human Aurora kinase A by high throughput ATP-[33P] radiolabeled assay

Inhibitor of nuclear factor kappa-B kinase subunit alpha (Homo sapiens), sequence (O15111 whole entry): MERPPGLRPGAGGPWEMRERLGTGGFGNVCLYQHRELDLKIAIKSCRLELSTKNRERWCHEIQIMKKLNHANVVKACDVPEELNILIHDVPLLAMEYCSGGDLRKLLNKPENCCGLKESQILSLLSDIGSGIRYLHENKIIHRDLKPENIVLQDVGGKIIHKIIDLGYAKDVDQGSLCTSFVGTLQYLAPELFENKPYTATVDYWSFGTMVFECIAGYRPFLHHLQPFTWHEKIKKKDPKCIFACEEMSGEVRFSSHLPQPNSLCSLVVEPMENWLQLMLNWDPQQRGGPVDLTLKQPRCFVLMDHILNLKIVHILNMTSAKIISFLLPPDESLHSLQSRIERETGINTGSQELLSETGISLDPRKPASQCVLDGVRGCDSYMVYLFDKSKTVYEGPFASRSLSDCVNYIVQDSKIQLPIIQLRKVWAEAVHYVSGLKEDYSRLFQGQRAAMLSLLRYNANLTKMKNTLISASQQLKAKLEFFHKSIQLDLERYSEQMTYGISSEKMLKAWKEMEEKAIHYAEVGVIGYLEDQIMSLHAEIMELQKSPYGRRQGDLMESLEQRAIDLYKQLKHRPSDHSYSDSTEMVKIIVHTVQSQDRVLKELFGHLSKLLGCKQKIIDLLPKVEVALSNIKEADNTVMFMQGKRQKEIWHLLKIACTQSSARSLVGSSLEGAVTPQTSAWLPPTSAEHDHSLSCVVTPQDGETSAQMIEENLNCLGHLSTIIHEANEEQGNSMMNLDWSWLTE

Consider `CN1CCN(Cc2ccc(-c3cnc4[nH]cc(-c5ccc6[nH]ccc6c5)c4c3)cc2)CC1`, for which, in test [1], the inhibition (in general, the percentage by which the read-out fell short of the control) is “Active”. Besides, the inhibition entry in [2], in [3] and in test [4] was “inactive” throughout. Also, the inhibition in [5], in test [6] and in [7] was over 90% each time. In addition, the IC50 – broadly, the midpoint of a concentration-inhibition curve – in test [8] amounted to 111 nM; in test [9], 307 nM; in test [10], 290 nM; in [11], 108 nM.
